Laboratory results from ChEMBL document CHEMBL1154592, “Triazine and pyrimidine based ROCK inhibitors with efficacy in spontaneous hypertensive rat model” (Bioorg Med Chem Lett, 2009).
Each block holds one molecule with its values, some of them ahead of it. Active and inactive are the calls of the source. The rule behind the calls is not given here.

How the values were obtained:
[1] = molecular target: Rho-associated protein kinase 1 (Homo sapiens, UniProt Q13464); assay: Inhibition of ROCK1 by IMAP assay
[2] = molecular target: Serine/threonine-protein kinase Chk1 (Homo sapiens) (UniProt O14757); assay: Inhibition of CHK1 at 2 uM
[3] = molecular target: Cyclin-dependent kinase 2 (Homo sapiens) (UniProt P24941); assay: Inhibition of CDK2 at 2 uM
Rattus norvegicus [4] = assay: Decrease in mean arterial blood pressure in spontaneous hypertensive rat model at 3 mg/kg, sc; assay type: functional, organism-based; design: dose 3 mg/kg; conditions: Artery
[5] = molecular target: BDNF/NT-3 growth factors receptor (Homo sapiens) (UniProt Q16620); assay: Inhibition of TRKbeta at 2 uM
[6] = molecular target: Epidermal growth factor receptor (Homo sapiens) (UniProt P00533); assay: Inhibition of EGFR at 2 uM
Rattus norvegicus [7] = assay: Decrease in mean arterial blood pressure in spontaneous hypertensive rat model at 10 mg/kg, sc; assay type: functional, organism-based; design: dose 10 mg/kg; conditions: Artery
[8] = molecular target: Tyrosine-protein kinase Lck (Homo sapiens) (UniProt P06239); assay: Inhibition of LCK at 2 uM
[9] = molecular target: Aurora kinase A (Homo sapiens) (UniProt O14965); assay: Inhibition of AuroraA at 2 uM
[10] = molecular target: Tyrosine-protein kinase ZAP-70 (Homo sapiens) (UniProt P43403); assay: Inhibition of Zap70 at 2 uM
[11] = molecular target: Serine/threonine-protein kinase PAK 2 (Homo sapiens) (UniProt Q13177); assay: Inhibition of PAK2 at 2 uM
[12] = molecular target: MAP kinase-activated protein kinase 2 (Homo sapiens) (UniProt P49137); assay: Inhibition of MAPK2 at 2 uM
[13] = molecular target: Platelet-derived growth factor receptor beta (Homo sapiens) (UniProt P09619); assay: Inhibition of PDGFRbeta at 2 uM
[14] = molecular target: RAF proto-oncogene serine/threonine-protein kinase (Homo sapiens) (UniProt P04049); assay: Inhibition of cRAF at 2 uM
[15] = molecular target: Serine/threonine-protein kinase STK11 (Homo sapiens) (UniProt Q15831); assay: Inhibition of LKB1 at 2 uM
[16] = molecular target: Insulin receptor (Homo sapiens) (UniProt P06213); assay: Inhibition of IR at 2 uM
[17] = molecular target: Serine/threonine-protein kinase Nek2 (Homo sapiens) (UniProt P51955); assay: Inhibition of NEK2 at 2 uM
[18] = Inhibition of MAPK at 2 uM
[19] = molecular target: Casein kinase I isoform delta (Homo sapiens) (UniProt P48730); assay: Inhibition of CK1delta at 2 uM
[20] = molecular target: Calcium/calmodulin-dependent protein kinase type IV (Homo sapiens) (UniProt Q16566); assay: Inhibition of CaMK4 at 2 uM
[21] = Inhibition of CK2 at 2 uM
[22] = molecular target: Ribosomal protein S6 kinase alpha-3 (Homo sapiens) (UniProt P51812); assay: Inhibition of Rsk2 at 2 uM
[23] = molecular target: Tyrosine-protein kinase CSK (Homo sapiens) (UniProt P41240); assay: Inhibition of CSK at 2 uM
[24] = molecular target: Dual specificity mitogen-activated protein kinase kinase 1 (Homo sapiens) (UniProt Q02750); assay: Inhibition of MEK1 at 2 uM
[25] = molecular target: Glycogen synthase kinase-3 beta (Homo sapiens) (UniProt P49841); assay: Inhibition of GSK3-beta at 2 uM
[26] = molecular target: Proto-oncogene tyrosine-protein kinase Src (Homo sapiens) (UniProt P12931); assay: Inhibition of cSRC at 2 uM
[27] = molecular target: Hepatocyte growth factor receptor (Homo sapiens) (UniProt P08581); assay: Inhibition of Met at 2 uM
Rattus norvegicus [28] = assay: Decrease in mean arterial blood pressure in spontaneous hypertensive rat model at 30 mg/kg, sc; assay type: functional, organism-based; design: dose 30 mg/kg; conditions: Artery

Sequence of Rho-associated protein kinase 1 (Q13464 whole entry): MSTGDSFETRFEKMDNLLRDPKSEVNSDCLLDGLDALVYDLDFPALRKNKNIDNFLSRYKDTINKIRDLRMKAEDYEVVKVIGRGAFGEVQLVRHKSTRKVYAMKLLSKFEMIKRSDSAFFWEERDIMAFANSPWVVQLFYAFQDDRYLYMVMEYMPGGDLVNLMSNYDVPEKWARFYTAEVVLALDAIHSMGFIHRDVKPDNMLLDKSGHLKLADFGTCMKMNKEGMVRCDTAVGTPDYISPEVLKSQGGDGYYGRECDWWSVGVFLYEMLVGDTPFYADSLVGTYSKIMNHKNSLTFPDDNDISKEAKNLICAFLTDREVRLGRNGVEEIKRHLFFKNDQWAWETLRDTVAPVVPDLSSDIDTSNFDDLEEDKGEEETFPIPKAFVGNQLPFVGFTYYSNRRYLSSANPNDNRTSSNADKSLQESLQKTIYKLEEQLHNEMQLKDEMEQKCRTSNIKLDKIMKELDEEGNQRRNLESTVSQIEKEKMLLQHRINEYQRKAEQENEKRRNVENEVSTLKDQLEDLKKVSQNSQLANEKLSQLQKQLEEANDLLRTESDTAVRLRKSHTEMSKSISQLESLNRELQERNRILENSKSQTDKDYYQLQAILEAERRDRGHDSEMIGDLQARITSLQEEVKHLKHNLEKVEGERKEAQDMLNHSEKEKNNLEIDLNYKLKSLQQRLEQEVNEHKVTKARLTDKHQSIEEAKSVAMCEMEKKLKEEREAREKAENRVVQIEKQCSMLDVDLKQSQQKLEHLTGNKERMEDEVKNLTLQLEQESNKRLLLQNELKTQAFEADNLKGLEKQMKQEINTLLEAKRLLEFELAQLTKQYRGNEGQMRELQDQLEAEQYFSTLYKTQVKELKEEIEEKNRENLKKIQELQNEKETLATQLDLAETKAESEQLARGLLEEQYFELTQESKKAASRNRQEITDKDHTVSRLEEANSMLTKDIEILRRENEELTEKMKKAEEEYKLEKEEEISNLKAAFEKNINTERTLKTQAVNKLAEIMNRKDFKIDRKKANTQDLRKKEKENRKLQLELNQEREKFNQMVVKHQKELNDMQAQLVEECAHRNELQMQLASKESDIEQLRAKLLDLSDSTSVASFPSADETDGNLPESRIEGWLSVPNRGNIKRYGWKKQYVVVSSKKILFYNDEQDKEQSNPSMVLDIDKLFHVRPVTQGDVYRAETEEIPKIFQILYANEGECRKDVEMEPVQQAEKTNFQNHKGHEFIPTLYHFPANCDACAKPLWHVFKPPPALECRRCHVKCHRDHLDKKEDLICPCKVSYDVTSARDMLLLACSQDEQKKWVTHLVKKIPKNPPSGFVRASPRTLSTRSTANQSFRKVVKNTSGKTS
Sequence of MAP kinase-activated protein kinase 2 (Homo sapiens) (P49137 whole entry, looked up): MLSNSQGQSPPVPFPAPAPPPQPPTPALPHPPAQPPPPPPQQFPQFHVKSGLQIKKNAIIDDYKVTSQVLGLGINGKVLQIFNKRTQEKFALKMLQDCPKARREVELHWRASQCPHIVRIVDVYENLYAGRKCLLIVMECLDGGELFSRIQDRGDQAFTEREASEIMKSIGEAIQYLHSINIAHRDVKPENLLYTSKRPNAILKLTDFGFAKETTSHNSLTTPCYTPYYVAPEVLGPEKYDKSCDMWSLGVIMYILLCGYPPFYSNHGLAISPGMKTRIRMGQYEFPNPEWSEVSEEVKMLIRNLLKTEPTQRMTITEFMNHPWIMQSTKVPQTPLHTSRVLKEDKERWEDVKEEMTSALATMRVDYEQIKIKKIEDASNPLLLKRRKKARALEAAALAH
Sequence of RAF proto-oncogene serine/threonine-protein kinase (Homo sapiens) (P04049 whole entry): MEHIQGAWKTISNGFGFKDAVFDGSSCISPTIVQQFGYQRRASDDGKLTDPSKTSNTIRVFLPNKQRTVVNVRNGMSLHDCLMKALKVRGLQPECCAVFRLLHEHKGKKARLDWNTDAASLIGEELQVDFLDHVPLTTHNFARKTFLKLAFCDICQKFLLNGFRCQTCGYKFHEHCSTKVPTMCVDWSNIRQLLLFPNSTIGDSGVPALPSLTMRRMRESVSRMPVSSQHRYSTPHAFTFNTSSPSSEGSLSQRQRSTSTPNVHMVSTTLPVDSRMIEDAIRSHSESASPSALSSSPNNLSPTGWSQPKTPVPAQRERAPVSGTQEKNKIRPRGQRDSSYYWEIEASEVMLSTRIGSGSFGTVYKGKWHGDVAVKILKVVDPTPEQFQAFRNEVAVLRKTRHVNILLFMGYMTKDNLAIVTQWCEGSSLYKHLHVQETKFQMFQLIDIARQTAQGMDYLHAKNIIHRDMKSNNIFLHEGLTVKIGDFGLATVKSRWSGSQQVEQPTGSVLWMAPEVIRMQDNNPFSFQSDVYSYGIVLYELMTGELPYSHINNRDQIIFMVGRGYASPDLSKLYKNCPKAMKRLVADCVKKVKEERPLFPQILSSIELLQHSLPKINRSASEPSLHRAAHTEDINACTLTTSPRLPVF
Sequence of Proto-oncogene tyrosine-protein kinase Src (Homo sapiens) (P12931 2-536 limits assumed): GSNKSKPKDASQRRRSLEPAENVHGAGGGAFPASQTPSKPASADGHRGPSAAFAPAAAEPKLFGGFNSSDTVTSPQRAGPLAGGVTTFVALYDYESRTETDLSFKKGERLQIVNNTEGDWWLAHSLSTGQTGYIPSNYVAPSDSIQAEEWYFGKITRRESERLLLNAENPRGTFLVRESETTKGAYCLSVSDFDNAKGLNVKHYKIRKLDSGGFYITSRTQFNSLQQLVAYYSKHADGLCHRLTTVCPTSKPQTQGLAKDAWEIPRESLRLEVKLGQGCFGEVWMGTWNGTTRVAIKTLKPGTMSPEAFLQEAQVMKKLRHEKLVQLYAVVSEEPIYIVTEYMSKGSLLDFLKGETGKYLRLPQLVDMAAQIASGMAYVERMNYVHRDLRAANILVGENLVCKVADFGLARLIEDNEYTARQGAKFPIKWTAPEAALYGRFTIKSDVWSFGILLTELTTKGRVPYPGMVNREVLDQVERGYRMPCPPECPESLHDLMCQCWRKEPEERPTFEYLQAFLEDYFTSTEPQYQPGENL
Sequence of Tyrosine-protein kinase ZAP-70 (Homo sapiens) (P43403 whole entry): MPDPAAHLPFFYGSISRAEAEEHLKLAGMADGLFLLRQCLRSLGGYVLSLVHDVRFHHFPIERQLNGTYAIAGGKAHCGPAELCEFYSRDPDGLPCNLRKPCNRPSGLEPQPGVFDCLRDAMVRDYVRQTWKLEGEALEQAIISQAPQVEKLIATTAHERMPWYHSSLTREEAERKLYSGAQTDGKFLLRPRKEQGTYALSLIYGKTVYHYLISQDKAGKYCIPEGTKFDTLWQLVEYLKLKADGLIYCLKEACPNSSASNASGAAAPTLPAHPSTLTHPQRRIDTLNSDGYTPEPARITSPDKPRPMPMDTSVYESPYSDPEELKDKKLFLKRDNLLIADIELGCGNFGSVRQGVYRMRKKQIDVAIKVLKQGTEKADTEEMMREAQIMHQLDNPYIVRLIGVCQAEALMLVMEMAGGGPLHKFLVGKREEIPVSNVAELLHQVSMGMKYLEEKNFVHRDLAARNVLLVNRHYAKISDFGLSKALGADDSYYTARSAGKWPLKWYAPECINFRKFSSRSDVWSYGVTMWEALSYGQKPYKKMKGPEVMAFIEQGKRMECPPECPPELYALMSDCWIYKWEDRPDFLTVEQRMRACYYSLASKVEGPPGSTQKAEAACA
Sequence of Hepatocyte growth factor receptor (Homo sapiens) (P08581 whole entry): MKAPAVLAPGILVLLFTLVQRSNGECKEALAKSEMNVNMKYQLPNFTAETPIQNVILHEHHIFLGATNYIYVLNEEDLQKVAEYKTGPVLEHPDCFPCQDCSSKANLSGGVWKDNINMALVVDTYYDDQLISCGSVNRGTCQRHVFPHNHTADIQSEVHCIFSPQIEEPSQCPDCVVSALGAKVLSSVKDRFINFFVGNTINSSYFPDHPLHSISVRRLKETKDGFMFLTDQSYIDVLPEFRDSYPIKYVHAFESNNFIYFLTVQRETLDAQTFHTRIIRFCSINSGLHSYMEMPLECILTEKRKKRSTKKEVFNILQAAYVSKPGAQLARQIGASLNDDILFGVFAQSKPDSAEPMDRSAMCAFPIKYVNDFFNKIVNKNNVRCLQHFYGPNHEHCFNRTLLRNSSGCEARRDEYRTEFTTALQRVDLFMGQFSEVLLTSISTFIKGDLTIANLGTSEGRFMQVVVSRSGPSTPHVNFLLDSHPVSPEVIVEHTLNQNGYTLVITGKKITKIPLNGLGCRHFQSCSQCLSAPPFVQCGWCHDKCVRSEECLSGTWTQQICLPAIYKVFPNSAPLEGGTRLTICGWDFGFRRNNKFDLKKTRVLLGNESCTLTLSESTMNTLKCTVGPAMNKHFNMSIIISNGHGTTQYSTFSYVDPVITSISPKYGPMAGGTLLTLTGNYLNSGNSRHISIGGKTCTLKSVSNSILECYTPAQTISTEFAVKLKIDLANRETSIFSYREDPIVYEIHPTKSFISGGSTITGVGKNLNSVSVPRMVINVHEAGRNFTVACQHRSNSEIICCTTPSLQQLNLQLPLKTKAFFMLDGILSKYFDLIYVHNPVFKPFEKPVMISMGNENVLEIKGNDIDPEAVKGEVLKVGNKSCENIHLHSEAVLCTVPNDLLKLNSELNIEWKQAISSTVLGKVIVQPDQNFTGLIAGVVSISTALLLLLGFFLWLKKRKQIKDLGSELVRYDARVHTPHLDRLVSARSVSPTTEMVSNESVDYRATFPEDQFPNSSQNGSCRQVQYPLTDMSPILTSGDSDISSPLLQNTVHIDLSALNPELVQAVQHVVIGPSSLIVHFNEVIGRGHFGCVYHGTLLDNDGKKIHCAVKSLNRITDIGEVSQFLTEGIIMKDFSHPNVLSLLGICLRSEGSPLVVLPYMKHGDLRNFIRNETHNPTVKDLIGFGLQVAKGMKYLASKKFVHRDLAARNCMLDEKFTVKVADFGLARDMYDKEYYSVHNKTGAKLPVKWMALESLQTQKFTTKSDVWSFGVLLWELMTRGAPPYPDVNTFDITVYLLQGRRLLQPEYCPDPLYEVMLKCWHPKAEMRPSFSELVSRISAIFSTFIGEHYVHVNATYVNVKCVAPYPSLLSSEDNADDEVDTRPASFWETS

SMILES: c1ccc2c(c1)CCC2Nc1nc(Nc2ccncc2)nc(N2CCNCC2)n1 (stereo not drawn)
- IC50 [1]: 185 nM

- IC50 [1]: 305 nM
SMILES: CN1CCN(c2nc(Nc3ccncc3)nc(NC3Cc4ccccc4C3)n2)CC1

SMILES: c1ccc2c(c1)CCC(Nc1nc(Nc3ccncc3)nc(N3CCNCC3)n1)C2 (stereo not drawn)
- IC50 [1]: 23 nM

- IC50 [1]: 8 nM
SMILES: C[C@@H]1CN(c2nc(Nc3ccncc3)nc(NC3Cc4ccccc4C3)n2)CCN1

- IC50 [1]: 326 nM
SMILES: c1ccc(CCNc2nc(Nc3ccncc3)nc(N3CCNCC3)n2)cc1

- IC50 [1]: 135 nM
SMILES: C[C@H]1CN(c2nc(Nc3ccncc3)nc(NC3Cc4ccccc4C3)n2)CCN1

- IC50 [1]: 1200 nM
SMILES: c1ccc2c(c1)CC(Nc1nc(Nc3ccncc3)cc(N3CCNCC3)n1)C2

- IC50 [1]: 400 nM
SMILES: c1ccc(CNc2nc(Nc3ccncc3)nc(N3CCNCC3)n2)cc1

- IC50 [1]: 8400 nM
SMILES: c1cncc(Nc2nc(NC3Cc4ccccc4C3)nc(N3CCNCC3)n2)c1

- IC50 [1]: 7400 nM
SMILES: c1ccc(Nc2nc(NC3Cc4ccccc4C3)nc(N3CCNCC3)n2)cc1

- IC50 [1]: 8 nM
SMILES: c1ccc2c(c1)CC(Oc1nc(Nc3ccncc3)nc(N3CCNCC3)n1)C2

SMILES: c1ccc2c(c1)CC(Nc1nc(Nc3ccncc3)nc(N3CCCNCC3)n1)C2
- IC50 [1]: 11 nM

- IC50 [1]: 118 nM
SMILES: C[C@@H]1CNCCN1c1nc(Nc2ccncc2)nc(NC2Cc3ccccc3C2)n1

- IC50 [1]: 87 nM
SMILES: C[C@H]1CNCCN1c1nc(Nc2ccncc2)nc(NC2Cc3ccccc3C2)n1

- IC50 [1]: 890 nM
SMILES: c1cc(Nc2nc(NC3CCCC3)nc(N3CCNCC3)n2)ccn1

SMILES: CNCCN(C)c1nc(Nc2ccncc2)nc(NC2Cc3ccccc3C2)n1
- IC50 [1]: 81 nM

SMILES: c1ccc2c(c1)CC(Nc1nc(Nc3ccncc3)nc(N3CCNCC3)n1)C2
- inhibition [2]: < 50%
- inhibition [3]: < 50%
- Activity (Rattus norvegicus [4]): Active
- inhibition [5]: < 50%
- inhibition [6]: < 50%
- Activity (Rattus norvegicus [7]): Active
- inhibition [8]: < 50%
- inhibition [9]: < 50%
- inhibition [10]: < 50%
- inhibition [11]: < 50%
- inhibition [12]: < 50%
- inhibition [13]: < 50%
- inhibition [14]: < 50%
- inhibition [15]: < 50%
- inhibition [16]: < 50%
- inhibition [17]: < 50%
- inhibition [18]: < 50%
- inhibition [19]: < 50%
- inhibition [20]: < 50%
- inhibition [21]: < 50%
- inhibition [22]: < 50%
- inhibition [23]: < 50%
- inhibition [24]: < 50%
- inhibition [25]: < 50%
- inhibition [26]: < 50%
- inhibition [27]: < 50%
- IC50 [1]: 6 nM

- IC50 [1]: 8300 nM
SMILES: c1ccc2c(c1)CC(Nc1nc(Nc3ccncc3)nc(N3CCCCC3)n1)C2

- IC50 [1]: 1000 nM
SMILES: c1ccc(Nc2nc(NC3Cc4ccccc4C3)nc(N3CCNCC3)n2)nc1

- IC50 [1]: 14 nM
SMILES: c1ccc2c(c1)CC(Nc1cc(N3CCNCC3)nc(Nc3ccncc3)n1)C2

SMILES: C[C@@H](N)[C@H]1CC[C@H](C(=O)Nc2ccncc2)CC1
- Activity (Rattus norvegicus [28]): Active

- IC50 [1]: 2 nM
SMILES: c1ccc2c(c1)CC(Nc1cc(Nc3ccncc3)nc(N3CCNCC3)n1)C2
